The values that follow come from patent US20250282803A1, “DIDEHYDRO-3'-DEOXY-4'-ETHYNYLTHYMIDINES AND RELATED COMPOUNDS AND THEIR USE IN TREATING MEDICAL CONDITIONS” (ROME Therapeutics, Inc., priority 2022, published 2025).

Where only a bound is given, the exact number is not on record here.

The target of assay [1] is T1, LINE1 reverse transcriptase (Homo sapiens, UniProt O00370). The assay is described as follows: Stable artificial-intron Cis LINE1 reporter assay. Type of assay: cell-based. Set-up: host or cells: HeLa Tet-On 3G. The conditions noted are these: stable HeLa Tet-On 3G L1 reporter cells, doxycycline 500 ng/mL, 72 h; Firefly Luciferase activity. How it is done:
Exemplary compounds were tested for ability to inhibit LINE1 reverse transcriptase using a stable artificial-intron Cis LINE1 reporter assay. Assay procedures and results are described below.
A stable HeLa Tet-On 3G (Takara, cat no 631183) cell line expressing a bi-directional inducible LINE1 construct was generated as described in Xie, Y. et al. “Cell division promotes efficient retrotransposition in a stable L1 reporter cell line,” Mobile DNA (2013) 4:10. Single cell clones were screened for high Luciferase expression and the highest expression Firefly expressing clone was chosen for compound testing.
Test compounds were serially diluted in DMSO and spotted in 96-well plates. Subsequently the HeLa L1 artificial-intron reporter cells were plated into the compound-containing wells (8,000 cells/well), and the cells were induced for reporter expression with doxycycline (Sigma cat no D9891) at a final concentration of 500 ng/mL. Luminescence was measured 72 h after plating using the Dual-Glo Luciferase Assay System (Promega cat no E2940) following the manufacturer's instructions. The Firefly Luciferase activity was used to report LINE1 activity.
(Reporter assays use an easily measured gene product as a stand-in for the process of interest.)

Assay [2] concerns the target T1, LINE1 reverse transcriptase. The assay is described as follows: Transient artificial-intron Cis LINE1 reporter assay. In kind it is cell-based. The conditions noted are these: HEK 293 cells, transient transfection; ratio FLuc/RLuc reports LINE1 activity. How it is done: The following compound (hereinafter “Test Compound”) was tested for ability to inhibit LINE1 reverse transcriptase using a transient artificial-intron Cis LINE1 reporter assay:
Additional exemplary compounds were also tested for ability to inhibit LINE1 reverse transcriptase using a transient artificial-intron Cis LINE1 reporter assay. Assay procedures and results are described below.
Intron-disrupted Firefly luciferase (FLuc) expression cassettes were generated as described by Xie, Y. et al. “Characterization of L1 retrotransposition with high-throughput dual-luciferase assays,” Nucleic Acid Res. (2011) Vol. 39, No. 3, e16. In addition, the plasmid contained an intact Renilla luciferase (RLuc) expression cassette on the vector backbone, in order to normalize transfection efficiency and measure potential cell toxicity.
HEK 293 cells were seeded in 96-well plates at 1,000 cells/well in 55 μL and grown for 24 hours. Cells were transfected with FuGeneHD (Promega) following the manufacturer's protocol. Each well received 0.133 ng plasmid, 0.4 μL FuGeneHD reagent, and 4.5 μL GlutaMAX-I-supplemented Opti-MEM I reduced-serum medium (Invitrogen). Cells were simultaneously treated with test compound serially diluted starting at 100 μM in a 3-fold dilution dose response.
Luminescence was measured using the Dual-Glo Luciferase Assay System (Promega) following the manufacturer's instructions. The ratio between FLuc and RLuc gene expression was used to report LINE1 activity.

T1 sequence (O00370 whole entry, looked up): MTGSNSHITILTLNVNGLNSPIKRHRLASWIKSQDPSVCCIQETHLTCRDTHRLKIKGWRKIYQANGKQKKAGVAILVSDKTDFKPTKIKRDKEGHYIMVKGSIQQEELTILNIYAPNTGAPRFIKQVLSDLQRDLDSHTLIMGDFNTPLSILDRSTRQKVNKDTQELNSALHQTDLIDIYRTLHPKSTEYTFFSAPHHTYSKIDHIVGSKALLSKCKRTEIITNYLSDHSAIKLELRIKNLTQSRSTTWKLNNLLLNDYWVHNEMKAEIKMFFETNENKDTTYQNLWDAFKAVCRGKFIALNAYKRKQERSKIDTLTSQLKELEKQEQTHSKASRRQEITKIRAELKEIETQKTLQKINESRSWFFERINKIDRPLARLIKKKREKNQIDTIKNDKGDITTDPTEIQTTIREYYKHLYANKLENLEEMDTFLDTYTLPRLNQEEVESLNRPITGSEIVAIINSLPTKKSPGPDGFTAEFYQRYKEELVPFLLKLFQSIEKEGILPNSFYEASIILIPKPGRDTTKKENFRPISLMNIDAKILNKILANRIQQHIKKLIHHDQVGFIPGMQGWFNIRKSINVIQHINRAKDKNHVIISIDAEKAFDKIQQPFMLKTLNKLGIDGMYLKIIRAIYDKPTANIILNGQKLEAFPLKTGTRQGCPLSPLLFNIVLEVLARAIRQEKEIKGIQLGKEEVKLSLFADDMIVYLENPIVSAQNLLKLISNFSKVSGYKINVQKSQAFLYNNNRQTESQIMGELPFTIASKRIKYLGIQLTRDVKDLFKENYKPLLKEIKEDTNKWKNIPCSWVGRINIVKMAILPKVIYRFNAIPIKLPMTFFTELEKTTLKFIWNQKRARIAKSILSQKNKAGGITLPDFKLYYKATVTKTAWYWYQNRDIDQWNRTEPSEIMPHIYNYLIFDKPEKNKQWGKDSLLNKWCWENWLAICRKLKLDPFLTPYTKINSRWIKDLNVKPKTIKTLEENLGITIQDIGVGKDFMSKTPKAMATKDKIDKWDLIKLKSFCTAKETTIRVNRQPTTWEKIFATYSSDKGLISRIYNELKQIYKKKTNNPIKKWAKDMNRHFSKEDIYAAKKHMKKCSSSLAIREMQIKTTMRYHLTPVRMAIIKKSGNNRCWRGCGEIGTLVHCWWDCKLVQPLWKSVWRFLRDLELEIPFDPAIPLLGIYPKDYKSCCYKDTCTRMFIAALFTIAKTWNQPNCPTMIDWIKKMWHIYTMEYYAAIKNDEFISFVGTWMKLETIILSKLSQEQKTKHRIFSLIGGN

Turning to `C#C[C@@]1(COP(=O)(NCc2ccccc2)OCCSC(=O)C(C)(C)CO)C=C[C@H](n2cc(C)c(=O)[nH]c2=O)O1` (single isomer, unassigned) [P-Diastereomer 1 from Example 3; II-1 or II-2], the IC50 in assay [1] and in assay [2] was 50 to 500 nM each time.

Turning to `C#C[C@@]1(COP(=O)(N[C@@H](C)C(=O)OC)Oc2ccc(Br)cc2)C=C[C@H](n2cc(C)c(=O)[nH]c2=O)O1` (single isomer, unassigned) [P-Diastereomer 2 from Example 2; I-7 or I-8], in assay [2], the IC50 – broadly, the concentration at which inhibition is half-maximal – lay in the range of 50 to 500 nM.

Regarding `C#C[C@@]1(CO[P@](=O)(N[C@@H](C)C(=O)OCC(CC)CC)Oc2ccccc2)C=C[C@H](n2cc(C)c(=O)[nH]c2=O)O1` [Compound I-5, 2-Ethylbutyl ((R)-(((2R,5R)-2-Ethynyl-5-(5-methyl-2,4-dioxo-3,4-dihydropyrimidin-1(2H)-yl)-2,5-dihydrofuran-2-yl)methoxy)(phenoxy)phosphoryl)-L-alaninate], the IC50 in assay [1] and in assay [2] was 50 to 500 nM in each case.

On to `C#C[C@@]1(COP(=O)(N[C@@H](C)C(=O)OCc2ccccc2)Oc2ccccc2)C=C[C@H](n2cc(C)c(=O)[nH]c2=O)O1` (mixture of isomers) [Benzyl ((((2R,5R)-2-Ethynyl-5-(5-methyl-2,4-dioxo-3,4-dihydropyrimidin-1(2H)-yl)-2,5-dihydrofuran-2-yl)methoxy)(phenoxy)phosphoryl)-L-alaninate], for which, in assay [1], the IC50 was 50 to 500 nM.

Regarding `C#C[C@@]1(COP(=O)(N[C@@H](C)C(=O)OC)Oc2ccc(Br)cc2)C=C[C@H](n2cc(C)c(=O)[nH]c2=O)O1` (single isomer, unassigned) [P-Diastereomer 1 from Example 2; I-7 or I-8], the concentration for half-maximal inhibition (IC50) in assay [1] was 50 to 500 nM.

Take `C#C[C@@]1(COP(=O)(N[C@@H](C)C(=O)OC)Oc2ccccc2)C=C[C@H](n2cc(C)c(=O)[nH]c2=O)O1` (mixture of isomers) [Methyl ((((2R,5R)-2-Ethynyl-5-(5-methyl-2,4-dioxo-3,4-dihydropyrimidin-1(2H)-yl)-2,5-dihydrofuran-2-yl)methoxy)(phenoxy)phosphoryl)-L-alaninate]: the half-inhibitory concentration (IC50) in assay [1] was above 500 nM.

As to `C#C[C@@]1(COP(=O)(NCc2ccccc2)OCCSC(=O)C(C)(C)CO)C=C[C@H](n2cc(C)c(=O)[nH]c2=O)O1` (single isomer, unassigned) [P-Diastereomer 2 from Example 3; II-1 or II-2], in assay [2], the IC50 was 50 to 500 nM.

In the case of `C#C[C@@]1(COP(=O)(N[C@@H](C)C(=O)OCC(C)(C)C)Oc2cccc3ccccc23)C=C[C@H](n2cc(C)c(=O)[nH]c2=O)O1` (single isomer, unassigned) [P-Diastereomer 1 from Example 2; I-16 or III-1], the IC50 in assay [1] and in assay [2] was 50 to 500 nM each time.

For `C#C[C@@]1(COP(=O)(NC(C)(C)C(=O)OC(C)C)Oc2ccccc2)C=C[C@H](n2cc(C)c(=O)[nH]c2=O)O1` (single isomer, unassigned) [P-Diastereomer 2 from Example 2; II-22 or II-23], in assay [1], the IC50 is above 500 nM.

`C#C[C@@]1(CO)C=C[C@H](n2cc(C)c(=O)[nH]c2=O)O1`: the IC50 in assay [1] lay in the range of 50 to 500 nM.

Turning to `C#C[C@@]1(CO[P@](=O)(N[C@@H](C)C(=O)OC(C)C)Oc2ccccc2)C=C[C@H](n2cc(C)c(=O)[nH]c2=O)O1` [Compound I-1, Isopropyl ((R)-(((2R,5R)-2-Ethynyl-5-(5-methyl-2,4-dioxo-3,4-dihydropyrimidin-1(2H)-yl)-2,5-dihydrofuran-2-yl)methoxy)(phenoxy)phosphoryl)-L-alaninate], the results for the IC50 in assay [1] and in assay [2] were above 500 nM and 50 to 500 nM, respectively.

`C#C[C@@]1(COP(=O)(NC(C)(C)C(=O)OC(C)C)Oc2ccccc2)C=C[C@H](n2cc(C)c(=O)[nH]c2=O)O1` (single isomer, unassigned) [P-Diastereomer 1 from Example 2; II-22 or II-23] gave an IC50 in assay [1] above 500 nM.

With `C#C[C@@]1(CO[P@@](=O)(N[C@@H](C)C(=O)OCC(CC)CC)Oc2ccccc2)C=C[C@H](n2cc(C)c(=O)[nH]c2=O)O1` [Compound I-6, 2-Ethylbutyl ((S)-(((2R,5R)-2-Ethynyl-5-(5-methyl-2,4-dioxo-3,4-dihydropyrimidin-1(2H)-yl)-2,5-dihydrofuran-2-yl)methoxy)(phenoxy)phosphoryl)-L-alaninate], the 50% inhibitory concentration (IC50) in assay [1] and in assay [2] was 50 to 500 nM throughout.

Regarding `C#C[C@@]1(CO[P@@](=O)(N[C@@H](C)C(=O)OC(C)C)Oc2ccccc2)C=C[C@H](n2cc(C)c(=O)[nH]c2=O)O1` [Compound I-2, Isopropyl ((S)-(((2R,5R)-2-Ethynyl-5-(5-methyl-2,4-dioxo-3,4-dihydropyrimidin-1(2H)-yl)-2,5-dihydrofuran-2-yl)methoxy)(phenoxy)phosphoryl)-L-alaninate], the IC50 in assay [1] was above 500 nM; in assay [2] it was 50 to 500 nM.

Turning to `C#C[C@@]1(COP(=O)(N[C@@H](C)C(=O)OCC(C)(C)C)Oc2cccc3ccccc23)C=C[C@H](n2cc(C)c(=O)[nH]c2=O)O1` (single isomer, unassigned) [P-Diastereomer 2 from Example 2; I-16 or III-1], the concentration for half-maximal inhibition (IC50) was 50 to 500 nM in assay [1] and at most 50 nM in assay [2].

In assay [1], `C#C[C@@]1(COP(=O)(OCOC(=O)OC(C)C)OCOC(=O)OC(C)C)C=C[C@H](n2cc(C)c(=O)[nH]c2=O)O1` [IV-1, 1-[(2R,5R)-5-[({di[(isopropoxycarbonyl)oxy]methoxyphosphoryl}oxy)methyl]-5-ethynyl-2H-furan-2-yl]-5-methyl-3H-pyrimidine-2,4-dione] showed an IC50 of at most 50 nM.
